US12539292B2, “BRM targeting compounds and associated methods of use” (Arvinas Operations, Inc., priority 2018, dated 2026)

Target: T1, BRM (Homo sapiens, UniProt P51531)
T1 construct: In-Cell Western Screen of BRM Degradation in SW1573 Cells; endogenous in cells; host or cells: SW1573
Experiment: In-cell Western screen of BRM degradation in SW1573 cells (Dmax and DC50)
Assay type: cell-based
Conditions: BRM degradation, SW1573 cells; for DC50: read-out: DC50; for Dmax: tested at the top concentration of between 0.3 and 10 μM, read-out: Dmax (%) (% degraded)
Procedure, shortened: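 Overnight compound treatment (18-20 h, final DMSO 0.1%) of SW1573 cells in DMEM with 10% FBS precedes fixation and in-cell Western staining with 800/680 nm dye-labelled secondaries. Plate images give DC50 and maximal degradation.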

T1 sequence (P51531 whole entry): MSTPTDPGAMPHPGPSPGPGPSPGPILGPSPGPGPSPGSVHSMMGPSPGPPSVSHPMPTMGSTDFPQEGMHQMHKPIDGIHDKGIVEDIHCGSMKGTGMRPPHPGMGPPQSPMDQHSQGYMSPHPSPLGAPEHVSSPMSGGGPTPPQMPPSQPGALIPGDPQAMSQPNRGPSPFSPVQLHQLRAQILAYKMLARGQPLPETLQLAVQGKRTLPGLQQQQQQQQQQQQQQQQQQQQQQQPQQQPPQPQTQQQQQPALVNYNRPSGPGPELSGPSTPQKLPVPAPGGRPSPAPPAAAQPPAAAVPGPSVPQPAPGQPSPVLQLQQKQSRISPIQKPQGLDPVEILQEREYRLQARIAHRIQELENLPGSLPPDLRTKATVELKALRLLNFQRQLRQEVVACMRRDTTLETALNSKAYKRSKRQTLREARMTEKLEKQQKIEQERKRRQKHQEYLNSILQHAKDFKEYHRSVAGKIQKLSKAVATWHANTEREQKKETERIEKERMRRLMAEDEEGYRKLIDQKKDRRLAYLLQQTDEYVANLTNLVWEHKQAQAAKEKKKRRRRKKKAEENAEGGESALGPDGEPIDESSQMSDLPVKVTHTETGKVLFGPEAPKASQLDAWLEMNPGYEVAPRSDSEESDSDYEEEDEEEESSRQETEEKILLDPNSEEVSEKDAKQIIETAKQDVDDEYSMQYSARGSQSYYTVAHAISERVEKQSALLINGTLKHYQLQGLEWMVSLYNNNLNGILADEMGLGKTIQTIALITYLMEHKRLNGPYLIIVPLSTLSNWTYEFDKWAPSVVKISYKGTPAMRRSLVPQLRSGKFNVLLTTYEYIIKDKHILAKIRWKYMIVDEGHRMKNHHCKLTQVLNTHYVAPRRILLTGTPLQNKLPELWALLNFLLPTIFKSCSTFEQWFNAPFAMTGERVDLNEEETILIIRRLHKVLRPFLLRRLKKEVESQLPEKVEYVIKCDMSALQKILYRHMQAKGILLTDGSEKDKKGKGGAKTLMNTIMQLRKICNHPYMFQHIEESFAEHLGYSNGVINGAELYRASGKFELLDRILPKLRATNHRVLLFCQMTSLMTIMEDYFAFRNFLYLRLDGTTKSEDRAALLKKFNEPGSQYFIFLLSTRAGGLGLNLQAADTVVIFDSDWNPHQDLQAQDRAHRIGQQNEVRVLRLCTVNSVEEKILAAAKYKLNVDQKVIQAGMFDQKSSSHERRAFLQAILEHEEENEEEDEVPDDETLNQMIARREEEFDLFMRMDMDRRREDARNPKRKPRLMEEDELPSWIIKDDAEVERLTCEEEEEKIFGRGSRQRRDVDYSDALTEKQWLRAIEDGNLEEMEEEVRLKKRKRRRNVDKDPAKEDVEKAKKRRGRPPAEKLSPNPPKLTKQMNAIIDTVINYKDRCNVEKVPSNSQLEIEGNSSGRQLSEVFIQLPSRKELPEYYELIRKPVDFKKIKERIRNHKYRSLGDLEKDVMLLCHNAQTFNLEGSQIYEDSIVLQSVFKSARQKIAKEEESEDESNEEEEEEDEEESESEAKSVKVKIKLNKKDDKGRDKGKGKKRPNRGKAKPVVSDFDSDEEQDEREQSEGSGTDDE

Cc1ncsc1-c1ccc([C@H](C)NC(=O)[C@@H]2C[C@@H](O)CN2C(=O)[C@H](c2cc(OCCC3CCN(C[C@H]4C[C@H](Oc5cc(N6C7CCC6CN(c6cc(-c8ccccc8O)nnc6N)C7)ccn5)C4)CC3)no2)C(C)C)cn1 [compound 287, (2S,4R)-1-((2S)-2-(3-(2-(1-(((1r,3S)-3-((4-(3-(3-amino-6-(2-hydroxyphenyl)pyridazin-4-yl)-3,8-diazabicyclo[3.2.1]octan-8-yl)pyridin-2-yl)oxy)cyclobutyl)methyl)piperidin-4-yl)ethoxy)isoxazol-5-yl)-3-methylbutanoyl)-4-hydroxy-N-((S)-1-(6-(4-methylthiazol-5-yl)pyridin-3-yl)ethyl)pyrrolidine-2-carboxamide]
DC50: > 30 nM

Cc1ncsc1-c1ccc([C@H](C)NC(=O)[C@@H]2C[C@@H](O)CN2C(=O)[C@@H](c2cc(OCCC3CCN(C[C@H]4C[C@H](Oc5cc(N6C7CCC6CN(c6cc(-c8ccccc8O)nnc6N)C7)ccn5)C4)CC3)no2)C(C)C)cn1 [compound 288, (2S,4R)-1-((2R)-2-(3-(2-(1-(((1r,3R)-3-((4-(3-(3-amino-6-(2-hydroxyphenyl)pyridazin-4-yl)-3,8-diazabicyclo[3.2.1]octan-8-yl)pyridin-2-yl)oxy)cyclobutyl)methyl)piperidin-4-yl)ethoxy)isoxazol-5-yl)-3-methylbutanoyl)-4-hydroxy-N-((S)-1-(6-(4-methylthiazol-5-yl)pyridin-3-yl)ethyl)pyrrolidine-2-carboxamide]
DC50: < 2.5 nM
Dmax: > 75%

COc1cc(C(C(=O)N2C[C@H](O)C[C@H]2C(=O)N[C@@H](C)c2ccc(-c3scnc3C)cc2)C(C)CC(=O)N(C)CCOc2cc(N3C4CCC3CN(c3cc(-c5ccccc5O)nnc3N)C4)ccn2)on1 (stereo partly drawn) [compound 289, (2S,4R)-1-(5-((2-((4-(3-(3-amino-6-(2-hydroxyphenyl)pyridazin-4-yl)-3,8-diazabicyclo[3.2.1]octan-8-yl)pyridin-2-yl)oxy)ethyl)(methyl)amino)-2-(3-methoxyisoxazol-5-yl)-3-methyl-5-oxopentanoyl)-4-hydroxy-N-((S)-1-(4-(4-methylthiazol-5-yl)phenyl)ethyl)pyrrolidine-2-carboxamide]
DC50: > 30 nM

Cc1ncsc1-c1ccc([C@H](CN)NC(=O)[C@@H]2C[C@@H](O)CN2C(=O)[C@H](c2cc(OCCN3CCN(CCOc4cc(N5C6CCC5CN(c5cc(-c7ccccc7O)nnc5N)C6)ccn4)CC3)no2)C(C)C)cc1 [compound 290, (2S,4R)-N-((R)-2-amino-1-(4-(4-methylthiazol-5-yl)phenyl)ethyl)-1-((2S)-2-(3-(2-(4-(2-((4-(3-(3-amino-6-(2-hydroxyphenyl)pyridazin-4-yl)-3,8-diazabicyclo[3.2.1]octan-8-yl)pyridin-2-yl)oxy)ethyl)piperazin-1-yl)ethoxy)isoxazol-5-yl)-3-methylbutanoyl)-4-hydroxypyrrolidine-2-carboxamide]
DC50: > 30 nM

Cc1ncsc1-c1ccc([C@H](COCC(C)C)NC(=O)[C@@H]2C[C@@H](O)CN2C(=O)[C@H](c2cc(OCCN3CCN(CCOc4cc(N5C6CCC5CN(c5cc(-c7ccccc7O)nnc5N)C6)ccn4)CC3)no2)C(C)C)cc1 [compound 291, (2S,4R)-1-((2S)-2-(3-(2-(4-(2-((4-(3-(3-amino-6-(2-hydroxyphenyl)pyridazin-4-yl)-3,8-diazabicyclo[3.2.1]octan-8-yl)pyridin-2-yl)oxy)ethyl)piperazin-1-yl)ethoxy)isoxazol-5-yl)-3-methylbutanoyl)-4-hydroxy-N-((R)-2-isobutoxy-1-(4-(4-methylthiazol-5-yl)phenyl)ethyl)pyrrolidine-2-carboxamide]
DC50: > 30 nM

CC(C)[C@H](C(=O)N1C[C@H](O)C[C@H]1C(=O)N[C@@H](C)c1ccc(-n2ccnn2)cc1)c1cc(OCCN2CCN(CCOc3cc(N4C5CCC4CN(c4cc(-c6ccccc6O)nnc4N)C5)ccn3)CC2)no1 [compound 292, (2S,4R)-N-((S)-1-(4-(1H-1,2,3-triazol-1-yl)phenyl)ethyl)-1-((2S)-2-(3-(2-(4-(2-((4-(3-(3-amino-6-(2-hydroxyphenyl)pyridazin-4-yl)-3,8-diazabicyclo[3.2.1]octan-8-yl)pyridin-2-yl)oxy)ethyl)piperazin-1-yl)ethoxy)isoxazol-5-yl)-3-methylbutanoyl)-4-hydroxypyrrolidine-2-carboxamide]
DC50: > 30 nM

CC(C)[C@@H](C(=O)N1C[C@H](O)C[C@H]1C(=O)N[C@@H](C)c1ccc(-n2ccnn2)cc1)c1cc(OCCN2CCN(CCOc3cc(N4C5CCC4CN(c4cc(-c6ccccc6O)nnc4N)C5)ccn3)CC2)no1 [compound 293, (2S,4R)-N-((S)-1-(4-(1H-1,2,3-triazol-1-yl)phenyl)ethyl)-1-((2R)-2-(3-(2-(4-(2-((4-(3-(3-amino-6-(2-hydroxyphenyl)pyridazin-4-yl)-3,8-diazabicyclo[3.2.1]octan-8-yl)pyridin-2-yl)oxy)ethyl)piperazin-1-yl)ethoxy)isoxazol-5-yl)-3-methylbutanoyl)-4-hydroxypyrrolidine-2-carboxamide]
DC50: 2.5 to 10 nM
Dmax: > 75%

Cc1cnn(C)c1-c1ccc([C@H](C)NC(=O)[C@@H]2C[C@@H](O)CN2C(=O)[C@H](c2cc(OCCN3CCC(O[C@H]4C[C@H](Oc5cc(N6C7CCC6CN(c6cc(-c8ccccc8O)nnc6N)C7)ccn5)C4)CC3)no2)C(C)C)cc1 [compound 294, (2S,4R)-1-((2S)-2-(3-(2-(4-((1r,3S)-3-((4-(3-(3-amino-6-(2-hydroxyphenyl)pyridazin-4-yl)-3,8-diazabicyclo[3.2.1]octan-8-yl)pyridin-2-yl)oxy)cyclobutoxy)piperidin-1-yl)ethoxy)isoxazol-5-yl)-3-methylbutanoyl)-N-((S)-1-(4-(1,4-dimethyl-1H-pyrazol-5-yl)phenyl)ethyl)-4-hydroxypyrrolidine-2-carboxamide]
DC50: 2.5 to 10 nM
Dmax: > 75%

Cc1cnn(C)c1-c1ccc([C@H](C)NC(=O)[C@@H]2C[C@@H](O)CN2C(=O)[C@@H](c2cc(OCCN3CCC(O[C@H]4C[C@H](Oc5cc(N6C7CCC6CN(c6cc(-c8ccccc8O)nnc6N)C7)ccn5)C4)CC3)no2)C(C)C)cc1 [compound 295, (2S,4R)-1-((2R)-2-(3-(2-(4-((1r,3R)-3-((4-(3-(3-amino-6-(2-hydroxyphenyl)pyridazin-4-yl)-3,8-diazabicyclo[3.2.1]octan-8-yl)pyridin-2-yl)oxy)cyclobutoxy)piperidin-1-yl)ethoxy)isoxazol-5-yl)-3-methylbutanoyl)-N-((S)-1-(4-(1,4-dimethyl-1H-pyrazol-5-yl)phenyl)ethyl)-4-hydroxypyrrolidine-2-carboxamide]
DC50: < 2.5 nM
Dmax: > 75%

Cc1ncsc1-c1ccc([C@H](C)NC(=O)[C@@H]2C[C@@H](O)CN2C(=O)[C@@H](c2cc(OCCN3CCN(C[C@H]4C[C@H](Oc5cc(N6C7CCC6CN(c6cc(-c8ccccc8O)nnc6N)C7)ccn5)C4)C[C@@H]3C)no2)C(C)C)cn1 [compound 296, (2S,4R)-1-((2R)-2-(3-(2-((2S)-4-(((1r,3S)-3-((4-(3-(3-amino-6-(2-hydroxyphenyl)pyridazin-4-yl)-3,8-diazabicyclo[3.2.1]octan-8-yl)pyridin-2-yl)oxy)cyclobutyl)methyl)-2-methylpiperazin-1-yl)ethoxy)isoxazol-5-yl)-3-methylbutanoyl)-4-hydroxy-N-((S)-1-(6-(4-methylthiazol-5-yl)pyridin-3-yl)ethyl)pyrrolidine-2-carboxamide]
DC50: < 2.5 nM
Dmax: > 75%
